Series [1] in a line: Molar enthalpy of transition or fusion. Particulars: Crystal; DSC.
For series [2] the following is noted: Crystal; DTA.

Values joined by “and” are separate entries in the source; they are usually repeats but may differ in a detail not shown here. Equal entries are not always repeated. ± gives the expanded uncertainty stated by the source.

As to `CCOC(=O)NCCOc1ccc(Oc2ccccc2)cc1` [fenoxycarb], the “Molar enthalpy of transition or fusion” value in series [1] is 28.2 kJ/mol and 26.8 kJ/mol. Also, the Normal melting temperature in series [2] was 53.47 ± 0.48 °C and 52.70 ± 0.87 °C.

Source of the values: the NIST ThermoML archive (doi:10.1016/j.jct.2013.06.007).
